Data on two compounds can be found in ChEMBL document CHEMBL5463729, “Data for DCP probe BAY 1753011” (2023).

The inhibition is the relative decrease from the control value, in per cent.

In test [1] the target is RAC-beta serine/threonine-protein kinase (Homo sapiens) (UniProt P31751). Nature of the test: Inhibition of PKBbeta(h) at 10.0 µM in the Eurofins Kinase panel. The following applies: Compound concentration 10.0 uM.
Test [2] has as its target Cannabinoid receptor 1 (Homo sapiens) (UniProt P21554). Description: Inhibition of Cannabinoid CB1 at compound concentration of 10.0 uM in the Eurofins-Panlabs radioligand binding assay (Eurofins_assay_217050). Details: ligand concentration 2 nM. The following applies: Compound concentration 10.0 uM.
The target in test [3] is 5-hydroxytryptamine receptor 2A (Homo sapiens) (UniProt P28223). The following applies: Compound concentration 10.0 uM.
Test [4] addresses Calcium/calmodulin-dependent protein kinase type II subunit delta (Homo sapiens) (UniProt Q13557). Description: Inhibition of CaMKIIdelta(h) at 10.0 µM in the Eurofins Kinase panel. The following applies: Compound concentration 10.0 uM.
Test [5] addresses GABA-A receptor; anion channel (Rattus norvegicus) (UniProt O09028+P15431+P18506+P18508+P19969+P20236+P23574+P23576+P28471+P28473+P30191+P62813+P63079+P63138+Q91ZM7+Q9ES14). The following applies: Compound concentration 10.0 uM.
The target in test [6] is Citron Rho-interacting kinase (Homo sapiens) (UniProt O14578). Description: Inhibition of CRIK(h) at 10.0 µM in the Eurofins Kinase panel. The following applies: Compound concentration 10.0 uM.
The target in test [7] is Purinergic P2Y (Rattus norvegicus) (UniProt O35811+Q9EPX4+P49651+Q63371+P41232+O35881+Q6GUG4). Description: Inhibition of Purinergic P2Y at compound concentration of 10.0 uM in the Eurofins-Panlabs radioligand binding assay (Eurofins_assay_268820). On the set-up: ligand concentration 0.1 nM. The format is protein assay. The following applies: Compound concentration 10.0 uM.

Test [8] addresses Rho-associated protein kinase 2 (Homo sapiens) (UniProt O75116). Nature of the test: Inhibition of ROCK-II(h) at 10.0 µM in the Eurofins Kinase panel. The following applies: Compound concentration 10.0 uM.
Test [9] has as its target Interstitial collagenase (Homo sapiens) (UniProt P03956). Nature of the test: Inhibition of Peptidase, Matrix Metalloproteinase-1 (MMP-1) at 10 µM in the Eurofins-Panlabs enzyme assay (Eurofins_assay_114110). The following applies: Compound concentration 10.0 uM.
For test [10], the target named is Mitogen-activated protein kinase 1 (Homo sapiens) (UniProt P28482). Nature of the test: Inhibition of Protein Serine/Threonine Kinase, MAPK1 (ERK2) at 10 µM in the Eurofins-Panlabs enzyme assay (Eurofins_assay_171120). Details: substrate with concentration. The following applies: Compound concentration 10.0 uM.
Test [11] has as its target D(1A) dopamine receptor (Homo sapiens) (UniProt P21728). The following applies: Compound concentration 10.0 uM.
Test [12] has as its target C-X-C chemokine receptor type 2 (Homo sapiens) (UniProt P25025). Nature of the test: Inhibition of Chemokine CXCR2 (IL-8RB) at 10 µM in the Eurofins-Panlabs radioligand binding assay (Eurofins_assay_244500). The following applies: Compound concentration 10.0 uM.
The target of test [13] is mTOR/FKBP12A/FKBP12B (Homo sapiens) (UniProt P62942+P68106+P42345). Description: Inhibition of mTOR FKBP12(h) at 10.0 µM in the Eurofins Kinase panel. The format is protein-complex assay. The following applies: Compound concentration 10.0 uM.
Test [14] concerns the target Tyrosine-protein kinase Fer (Homo sapiens) (UniProt P16591). Nature of the test: Inhibition of Fer(h) at 10.0 µM in the Eurofins Kinase panel. The following applies: Compound concentration 10.0 uM.
Test [15] concerns the target Mitogen-activated protein kinase kinase kinase 20 (Homo sapiens) (UniProt Q9NYL2). Description: Inhibition of ZAK(h) at 10.0 µM in the Eurofins Kinase panel. The following applies: Compound concentration 10.0 uM.
For test [16], the target named is Cholecystokinin receptor type A (Homo sapiens) (UniProt P32238). Description: Inhibition of Cholecystokinin CCK1 (CCKA) at 10 µM in the Eurofins-Panlabs radioligand binding assay (Eurofins_assay_218020). The following applies: Compound concentration 10.0 uM.
Test [17] deals with Sigma intracellular receptor 2 (Homo sapiens) (UniProt Q5BJF2). Nature of the test: Inhibition of Sigma 2 at 10 µM in the Eurofins-Panlabs radioligand binding assay (Eurofins_assay_278200). The following applies: Rattus norvegicus; Compound concentration 10.0 uM. On the set-up: ligand concentration 3 nM.
The next test is filed under the species Mus musculus. Nature of the test: Inhibition of Phorbol Ester at 10 µM in the Eurofins-Panlabs radioligand binding assay (Eurofins_assay_264500). Details: ligand concentration 3 nM. The following applies: Compound concentration 10.0 uM.
Test [18] deals with Sigma non-opioid intracellular receptor 1 (Homo sapiens) (UniProt Q99720). Nature of the test: Inhibition of Sigma 1 at 10 µM in the Eurofins-Panlabs radioligand binding assay (Eurofins_assay_278110). Details: ligand concentration 8 nM. The following applies: Compound concentration 10.0 uM.
In test [19] the target is Melanocortin receptor 4 (Homo sapiens) (UniProt P32245). Description: Inhibition of Melanocortin MC4 at 10 µM in the Eurofins-Panlabs radioligand binding assay (Eurofins_assay_251350). On the set-up: ligand concentration 0.02 nM. The following applies: Compound concentration 10.0 uM.
Test [20] concerns the target Receptor-type tyrosine-protein phosphatase C (Homo sapiens) (UniProt P08575). Description: Inhibition of Protein Tyrosine Phosphatase, PTPRC (CD45) at 10 µM in the Eurofins-Panlabs enzyme assay (Eurofins_assay_190010). The following applies: Compound concentration 10.0 uM.
Test [21] concerns the target AP2-associated protein kinase 1 (Homo sapiens) (UniProt Q2M2I8). Description: Inhibition of AAK1(h) at 10.0 µM in the Eurofins Kinase panel. The following applies: Compound concentration 10.0 uM.
Another test is filed under the species Homo sapiens. Nature of the test: Inhibition of Tumor Necrosis Factor (TNF), Non-Selective at 10 µM in the Eurofins-Panlabs radioligand binding assay (Eurofins_assay_286510). The following applies: Compound concentration 10.0 uM.
Test [22] deals with Serine/threonine-protein kinase Chk2 (Homo sapiens) (UniProt O96017). Description: Inhibition of CHK2(h) at 10.0 µM in the Eurofins Kinase panel. The following applies: Compound concentration 10.0 uM.
Test [23] addresses Prostaglandin G/H synthase 1 (Homo sapiens) (UniProt P23219). Nature of the test: Inhibition of Cyclooxygenase COX-1 at compound concentration of 10.0 uM in the Eurofins-Panlabs enzyme assay (Eurofins_assay_116020). The following applies: Compound concentration 10.0 uM.
The target in test [24] is RAC-alpha serine/threonine-protein kinase (Homo sapiens) (UniProt P31749). Nature of the test: Inhibition of PKBalpha(h) at 10.0 µM in the Eurofins Kinase panel. The following applies: Compound concentration 10.0 uM.
Test [25] concerns the target Vasoactive intestinal polypeptide receptor 1 (Homo sapiens) (UniProt P32241). Description: Inhibition of Vasoactive Intestinal Peptide VIP1 at 10 µM in the Eurofins-Panlabs radioligand binding assay (Eurofins_assay_287010). The following applies: Compound concentration 10.0 uM.
The target in test [26] is Serine/threonine-protein kinase BRSK2 (Homo sapiens) (UniProt Q8IWQ3). Nature of the test: Inhibition of BrSK2(h) at 10.0 µM in the Eurofins Kinase panel. The following applies: Compound concentration 10.0 uM.
The target in test [27] is Cathepsin G (Homo sapiens) (UniProt P08311). Nature of the test: Inhibition of Peptidase, CTSG (Cathepsin G) at 10 µM in the Eurofins-Panlabs enzyme assay (Eurofins_assay_112510). Details: substrate with concentration. The following applies: Compound concentration 10.0 uM.
The target in test [28] is Kappa-type opioid receptor (Homo sapiens, UniProt P41145). Nature of the test: GPCRScan assay: inhibition of KOR. Details: radioligand conc. used [nm] 0.6 – 1.2, parental cells stable HEK.
The target in test [29] is Glutamate receptor ionotropic, kainate (Rattus norvegicus) (UniProt P22756+Q01812+P42260+P42264+Q63273). Description: Inhibition of Glutamate, Kainate at 10 µM in the Eurofins-Panlabs radioligand binding assay (Eurofins_assay_232700). The following applies: Compound concentration 10.0 uM.
For test [30], the target named is C-C chemokine receptor type 4 (Homo sapiens) (UniProt P51679). Description: Inhibition of Chemokine CCR4 at 10 µM in the Eurofins-Panlabs radioligand binding assay (Eurofins_assay_217660). The following applies: Compound concentration 10.0 uM.
Test [31] has as its target Calcitonin receptor (Homo sapiens) (UniProt P30988). Description: Inhibition of Calcitonin at 10 µM in the Eurofins-Panlabs radioligand binding assay (Eurofins_assay_213610). The following applies: Compound concentration 10.0 uM.

Kappa-type opioid receptor, sequence (P41145 whole entry): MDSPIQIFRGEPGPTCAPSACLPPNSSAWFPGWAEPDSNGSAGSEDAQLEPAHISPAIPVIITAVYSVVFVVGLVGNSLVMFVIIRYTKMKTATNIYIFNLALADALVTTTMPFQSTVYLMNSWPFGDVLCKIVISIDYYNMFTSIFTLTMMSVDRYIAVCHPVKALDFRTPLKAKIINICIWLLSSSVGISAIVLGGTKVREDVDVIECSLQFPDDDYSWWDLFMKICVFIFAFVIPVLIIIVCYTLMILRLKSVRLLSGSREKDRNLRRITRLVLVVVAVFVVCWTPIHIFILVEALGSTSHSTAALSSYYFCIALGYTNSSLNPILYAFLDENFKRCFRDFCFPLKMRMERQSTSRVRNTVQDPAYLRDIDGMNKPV
D(1A) dopamine receptor (Homo sapiens), sequence (P21728 whole entry): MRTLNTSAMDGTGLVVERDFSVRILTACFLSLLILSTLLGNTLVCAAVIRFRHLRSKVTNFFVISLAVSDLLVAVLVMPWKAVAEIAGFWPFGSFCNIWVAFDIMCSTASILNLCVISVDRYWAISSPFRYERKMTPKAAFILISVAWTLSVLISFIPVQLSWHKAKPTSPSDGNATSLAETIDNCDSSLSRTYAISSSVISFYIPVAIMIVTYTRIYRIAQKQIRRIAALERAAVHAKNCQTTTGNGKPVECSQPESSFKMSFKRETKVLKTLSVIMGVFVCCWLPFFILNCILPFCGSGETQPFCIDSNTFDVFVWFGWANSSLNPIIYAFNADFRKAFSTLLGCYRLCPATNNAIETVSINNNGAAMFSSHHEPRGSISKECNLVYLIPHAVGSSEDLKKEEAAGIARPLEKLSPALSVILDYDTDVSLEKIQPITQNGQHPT
Sigma non-opioid intracellular receptor 1 (Homo sapiens), sequence (Q99720 whole entry): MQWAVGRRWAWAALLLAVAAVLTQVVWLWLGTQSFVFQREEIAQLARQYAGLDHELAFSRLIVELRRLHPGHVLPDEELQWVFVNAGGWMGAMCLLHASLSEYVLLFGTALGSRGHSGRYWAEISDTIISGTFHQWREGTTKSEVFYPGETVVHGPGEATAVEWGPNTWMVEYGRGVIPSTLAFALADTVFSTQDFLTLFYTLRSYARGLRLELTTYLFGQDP
Cannabinoid receptor 1 (Homo sapiens), sequence (P21554 whole entry): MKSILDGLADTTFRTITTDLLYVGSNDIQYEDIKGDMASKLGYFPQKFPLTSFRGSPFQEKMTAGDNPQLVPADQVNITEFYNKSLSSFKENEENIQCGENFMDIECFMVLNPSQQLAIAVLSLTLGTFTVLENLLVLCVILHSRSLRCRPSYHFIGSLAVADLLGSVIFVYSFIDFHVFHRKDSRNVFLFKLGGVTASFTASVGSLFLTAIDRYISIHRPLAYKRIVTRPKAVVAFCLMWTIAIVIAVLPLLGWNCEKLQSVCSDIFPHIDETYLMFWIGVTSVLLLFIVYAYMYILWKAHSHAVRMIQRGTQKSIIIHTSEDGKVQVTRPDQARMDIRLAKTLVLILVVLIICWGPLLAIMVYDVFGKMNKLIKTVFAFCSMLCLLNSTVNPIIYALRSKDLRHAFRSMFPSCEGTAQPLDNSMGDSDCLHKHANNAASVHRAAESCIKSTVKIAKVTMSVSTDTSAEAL
Rho-associated protein kinase 2 (Homo sapiens), sequence (O75116 whole entry, looked up): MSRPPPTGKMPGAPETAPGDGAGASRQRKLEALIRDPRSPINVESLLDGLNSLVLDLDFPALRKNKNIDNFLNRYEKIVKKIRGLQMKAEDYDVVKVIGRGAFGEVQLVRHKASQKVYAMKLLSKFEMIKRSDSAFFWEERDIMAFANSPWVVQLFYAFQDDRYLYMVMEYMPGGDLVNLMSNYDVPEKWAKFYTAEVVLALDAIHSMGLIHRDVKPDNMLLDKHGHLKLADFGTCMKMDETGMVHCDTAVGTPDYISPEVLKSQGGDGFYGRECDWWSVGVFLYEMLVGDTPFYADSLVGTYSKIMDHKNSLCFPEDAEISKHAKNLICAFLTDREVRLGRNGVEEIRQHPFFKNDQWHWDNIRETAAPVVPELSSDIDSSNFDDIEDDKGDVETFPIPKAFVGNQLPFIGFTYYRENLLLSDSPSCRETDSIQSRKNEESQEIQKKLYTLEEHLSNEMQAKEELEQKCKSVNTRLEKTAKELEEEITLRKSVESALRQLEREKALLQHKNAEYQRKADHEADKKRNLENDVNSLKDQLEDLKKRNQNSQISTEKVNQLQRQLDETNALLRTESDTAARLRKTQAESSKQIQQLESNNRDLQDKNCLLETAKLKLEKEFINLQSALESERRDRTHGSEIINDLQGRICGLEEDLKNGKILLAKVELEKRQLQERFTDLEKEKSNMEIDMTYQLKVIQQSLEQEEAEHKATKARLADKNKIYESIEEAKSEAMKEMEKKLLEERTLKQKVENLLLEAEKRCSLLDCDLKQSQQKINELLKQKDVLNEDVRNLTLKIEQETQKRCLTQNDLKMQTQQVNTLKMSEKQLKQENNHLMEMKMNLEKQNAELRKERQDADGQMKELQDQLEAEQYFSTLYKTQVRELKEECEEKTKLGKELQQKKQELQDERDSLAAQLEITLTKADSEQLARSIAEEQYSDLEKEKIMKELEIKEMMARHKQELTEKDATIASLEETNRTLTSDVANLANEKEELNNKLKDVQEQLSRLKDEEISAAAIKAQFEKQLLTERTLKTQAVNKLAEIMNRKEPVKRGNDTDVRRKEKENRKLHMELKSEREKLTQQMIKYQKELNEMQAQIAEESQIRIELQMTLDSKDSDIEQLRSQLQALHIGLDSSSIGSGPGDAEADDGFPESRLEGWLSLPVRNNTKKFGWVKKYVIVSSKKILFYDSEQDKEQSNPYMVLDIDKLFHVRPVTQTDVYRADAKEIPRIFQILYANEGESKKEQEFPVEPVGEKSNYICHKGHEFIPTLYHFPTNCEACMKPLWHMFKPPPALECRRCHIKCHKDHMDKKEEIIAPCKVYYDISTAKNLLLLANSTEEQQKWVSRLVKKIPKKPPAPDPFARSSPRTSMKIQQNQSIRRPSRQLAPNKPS
Mitogen-activated protein kinase kinase kinase 20 (Homo sapiens), sequence (Q9NYL2 2-800 limits assumed): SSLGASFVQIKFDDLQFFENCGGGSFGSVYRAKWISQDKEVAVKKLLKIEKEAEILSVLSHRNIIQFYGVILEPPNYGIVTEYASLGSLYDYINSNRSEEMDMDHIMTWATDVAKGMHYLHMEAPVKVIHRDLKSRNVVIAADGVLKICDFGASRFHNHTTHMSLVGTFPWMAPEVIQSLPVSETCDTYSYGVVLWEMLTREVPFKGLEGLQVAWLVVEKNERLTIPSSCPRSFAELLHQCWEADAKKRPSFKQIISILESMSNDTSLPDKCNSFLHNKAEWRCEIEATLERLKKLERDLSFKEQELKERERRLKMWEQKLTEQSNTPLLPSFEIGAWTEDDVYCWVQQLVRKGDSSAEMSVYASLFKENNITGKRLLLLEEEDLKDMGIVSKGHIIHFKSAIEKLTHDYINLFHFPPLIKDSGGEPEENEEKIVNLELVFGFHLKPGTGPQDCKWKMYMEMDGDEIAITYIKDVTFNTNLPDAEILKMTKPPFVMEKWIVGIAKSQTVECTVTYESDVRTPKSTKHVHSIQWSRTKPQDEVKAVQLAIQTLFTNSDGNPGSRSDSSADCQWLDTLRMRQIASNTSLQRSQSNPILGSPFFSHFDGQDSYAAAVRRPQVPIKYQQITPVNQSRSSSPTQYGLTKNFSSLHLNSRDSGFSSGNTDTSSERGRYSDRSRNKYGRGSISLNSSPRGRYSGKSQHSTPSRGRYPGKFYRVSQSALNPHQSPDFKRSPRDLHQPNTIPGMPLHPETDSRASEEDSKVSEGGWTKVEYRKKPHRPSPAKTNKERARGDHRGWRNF
Melanocortin receptor 4 (Homo sapiens), sequence (P32245 whole entry): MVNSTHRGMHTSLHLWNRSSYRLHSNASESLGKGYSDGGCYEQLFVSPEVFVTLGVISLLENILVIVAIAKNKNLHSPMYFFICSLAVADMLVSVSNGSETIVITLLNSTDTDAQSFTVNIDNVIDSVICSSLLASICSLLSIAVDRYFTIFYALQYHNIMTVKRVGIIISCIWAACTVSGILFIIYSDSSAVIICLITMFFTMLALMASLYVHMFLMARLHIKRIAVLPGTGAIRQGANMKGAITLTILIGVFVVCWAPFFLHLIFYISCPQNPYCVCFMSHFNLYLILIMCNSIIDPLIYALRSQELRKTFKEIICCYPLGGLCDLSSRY
Cathepsin G (Homo sapiens), sequence (P08311 whole entry): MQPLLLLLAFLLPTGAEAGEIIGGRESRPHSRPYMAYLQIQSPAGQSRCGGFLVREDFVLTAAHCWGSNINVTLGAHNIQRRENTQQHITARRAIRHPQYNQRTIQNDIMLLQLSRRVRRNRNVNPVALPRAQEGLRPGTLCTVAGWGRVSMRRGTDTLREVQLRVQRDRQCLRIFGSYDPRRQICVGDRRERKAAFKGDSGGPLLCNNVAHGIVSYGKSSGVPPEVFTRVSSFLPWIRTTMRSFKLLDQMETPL
Calcitonin receptor (Homo sapiens), sequence (P30988 whole entry): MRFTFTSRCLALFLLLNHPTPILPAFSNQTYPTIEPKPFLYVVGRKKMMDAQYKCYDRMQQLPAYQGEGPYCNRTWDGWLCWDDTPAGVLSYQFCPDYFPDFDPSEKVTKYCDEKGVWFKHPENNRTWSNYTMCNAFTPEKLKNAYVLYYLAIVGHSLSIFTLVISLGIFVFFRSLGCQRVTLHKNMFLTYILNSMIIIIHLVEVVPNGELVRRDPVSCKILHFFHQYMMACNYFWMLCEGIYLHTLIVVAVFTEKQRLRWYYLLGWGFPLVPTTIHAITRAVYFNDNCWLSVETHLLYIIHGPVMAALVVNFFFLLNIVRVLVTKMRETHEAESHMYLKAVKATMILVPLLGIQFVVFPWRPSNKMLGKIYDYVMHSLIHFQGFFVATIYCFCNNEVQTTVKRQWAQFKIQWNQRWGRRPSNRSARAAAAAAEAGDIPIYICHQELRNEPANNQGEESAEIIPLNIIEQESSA
Sigma intracellular receptor 2 (Homo sapiens), sequence (Q5BJF2 whole entry): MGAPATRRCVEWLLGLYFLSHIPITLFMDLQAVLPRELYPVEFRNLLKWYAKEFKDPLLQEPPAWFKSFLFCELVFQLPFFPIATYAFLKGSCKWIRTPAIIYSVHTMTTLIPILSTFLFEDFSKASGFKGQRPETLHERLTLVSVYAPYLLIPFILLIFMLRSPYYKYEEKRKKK

As for `O=c1n(Cc2cncn2-c2cccc(Cl)c2)nc(-c2ccc(Cl)cc2)n1C[C@H](O)C(F)(F)F`, the inhibition was -3.28% in [1]; 19% in [2]; -2% in test [3]; -4.39% in test [4]; -3.13% in [5]; -2.08% in [6]. In addition, the inhibition in test [7] is 4%.
With `C[C@H](O)c1nc(Cn2nc(-c3ccc(Cl)cc3)n(C[C@H](O)C(F)(F)F)c2=O)nn1-c1cccc(Cl)c1` [PECAVAPTAN], the inhibition in test [8] was 18.1%; in test [9] it was 3%; in [10], -2%; in test [11], -6.55%; in [12], -6%; in test [13], 2.46%. Also, the inhibition in [14] is -2.1%; in test [15], -4.87%; in test [16], 15%; in test [17], 5%; in the test listed under Mus musculus it was 3%; in test [18] it was 15%. For the same compound, the inhibition was 4% in [19]; 0% in test [20]; -9.01% in [21]; -1% in the test listed under Homo sapiens; -8.52% in [22]; -3% in [23]. The inhibition in [24] is -3.88%; in test [25] it was 10%; in test [26], -4.83%; in [27], 0%; in test [29], -4%; in test [30], -2%. Besides, in [31], the inhibition is -7%. Moreover, the values for the Ki in test [28] (read-out: Ki) and in [28] (read-out: pKi (converted)) were 2.17 µM and 2.14 µM, respectively.
